Species: Rattus norvegicus
Test: Open TG-GATES - Regimen: Single
Assay type: toxicity, organism-based, Sprague-Dawley
Design: regimen Single, gender Male, age 6 weeks
Conditions: in vivo, po, route gavage; for APTT / Bas / Eos / Fbg / Hb / Ht / Lym / MCHC / MCV / Mono / Neu / PT / Plat / RBC / Ret / WBC: tissue Blood; for KIDNEY_L / KIDNEY_R / KIDNEY_TOTAL: tissue Kidney; for LIVER: tissue Liver; for ALP / ALT / AST / BUN / CRE / Ca / Cl / DBIL / GLC / IP / K / LDH / Na / PL / RALB / TBIL / TC / TG / TP / gamma-GTP: tissue Plasma
[1] = 0 mg/kg, 3 h, dose level Control
[2] = 0 mg/kg, 6 h, dose level Control
[3] = 0 mg/kg, 9 h, dose level Control
[4] = 0 mg/kg, 24 h, dose level Control

Compound `CN(C)C(=N)N=C(N)N` [METFORMIN] has a TERMINAL_BW [1] of 200.9 g, an APTT [1] of 16.9 s and a Bas [1] of 0%. The Eos [1] was 0.6%, the Fbg [1] was 245.6 mg/dL and the Hb [1] was 13.1 g/dL. The Ht [1] was 39.6%, the Lym [1] was 76.8% and the MCHC [1] was 33%. For the same compound, the MCV [1] was 65.3 fL, the Mono [1] was 3.4% and the Neu [1] was 18.4%. For the same compound, the PT [1] was 12.3 s, the Plat [1] was 111.6 x10_4/uL and the RBC [1] was 606.6 x10_4/ul. For the same compound, the Ret [1] was 10.1%, the WBC [1] was 96.1 x10_2/uL and the KIDNEY_L [1] was 0.9 g. The KIDNEY_R [1] was 0.9 g, the KIDNEY_TOTAL [1] was 1.8 g and the LIVER [1] was 8.5 g. It also gave an ALP [1] of 1612 IU/L, an ALT [1] of 43.6 IU/L and an AST [1] of 74.2 IU/L. For the same compound, the BUN [1] was 9.2 mg/dL, the CRE [1] was 0.2 mg/dL and the Ca [1] was 11.1 mg/dL. For the same compound, the Cl [1] was 104 meq/L, the DBIL [1] was 0.016 mg/dL and the GLC [1] was 179.8 mg/dL. It also gave an IP [1] of 9.2 mg/dL, a K [1] of 4.2 meq/L and an LDH [1] of 58.2 IU/L. It also gave a Na [1] of 140 meq/L, a PL [1] of 136.6 mg/dL and an RALB [1] of 2.5 g/dL. It also gave a TBIL [1] of 0.052 mg/dL, a TC [1] of 87 mg/dL and a TG [1] of 42.2 mg/dL. For the same compound, the TP [1] was 5.2 g/dL, the gamma-GTP [1] was 1.4 IU/L and the TERMINAL_BW [2] was 202.6 g. It also gave an APTT [2] of 16.1 s, a Bas [2] of 0% and an Eos [2] of 0.8%. It also gave a Fbg [2] of 261 mg/dL, a Hb [2] of 12.9 g/dL and a Ht [2] of 38.9%. The Lym [2] was 77.2%, the MCV [2] was 62.9 fL and the Mono [2] was 3%. For the same compound, the Neu [2] was 18.4%, the PT [2] was 12.2 s and the Plat [2] was 113.4 x10_4/uL. The RBC [2] was 618.4 x10_4/ul, the Ret [2] was 9.2% and the WBC [2] was 92.1 x10_2/uL. For the same compound, the KIDNEY_L [2] was 0.9 g, the KIDNEY_R [2] was 0.9 g and the KIDNEY_TOTAL [2] was 1.8 g. For the same compound, the LIVER [2] was 8 g, the ALP [2] was 1285 IU/L and the ALT [2] was 44.8 IU/L. For the same compound, the AST [2] was 78.8 IU/L, the BUN [2] was 7.6 mg/dL and the CRE [2] was 0.1 mg/dL. The Ca [2] was 10.7 mg/dL, the Cl [2] was 104.8 meq/L and the DBIL [2] was 0.006 mg/dL. For the same compound, the GLC [2] was 161 mg/dL, the IP [2] was 9.9 mg/dL and the K [2] was 4.1 meq/L. It also gave an LDH [2] of 64 IU/L, a Na [2] of 139.4 meq/L and a PL [2] of 121 mg/dL. The RALB [2] was 2.4 g/dL, the TBIL [2] was 0.046 mg/dL and the TG [2] was 27.2 mg/dL. It also gave a TP [2] of 5 g/dL, a gamma-GTP [2] of 1 IU/L and a TERMINAL_BW [3] of 201 g. It also gave an APTT [3] of 16 s, a Bas [3] of 0% and an Eos [3] of 1%. It also gave a Fbg [3] of 244.8 mg/dL, a Hb [3] of 12.4 g/dL and a Lym [3] of 73.8%. The MCV [3] was 64.5 fL, the Mono [3] was 3.2% and the Neu [3] was 21.4%. The PT [3] was 12.2 s, the Plat [3] was 107.6 x10_4/uL and the RBC [3] was 577.8 x10_4/ul. It also gave a Ret [3] of 10%, a WBC [3] of 75.6 x10_2/uL and a KIDNEY_L [3] of 0.9 g. The KIDNEY_R [3] was 0.9 g, the KIDNEY_TOTAL [3] was 1.7 g and the LIVER [3] was 7.7 g. It also gave an ALP [3] of 1175 IU/L, an ALT [3] of 41.6 IU/L and an AST [3] of 69.6 IU/L. It also gave a BUN [3] of 9 mg/dL, a CRE [3] of 0.1 mg/dL and a Ca [3] of 10.6 mg/dL. For the same compound, the Cl [3] was 105 meq/L, the DBIL [3] was 0.008 mg/dL and the GLC [3] was 164.8 mg/dL. It also gave an IP [3] of 10.5 mg/dL, a K [3] of 4 meq/L and an LDH [3] of 49 IU/L. For the same compound, the Na [3] was 141 meq/L, the PL [3] was 136.4 mg/dL and the RALB [3] was 2.5 g/dL. For the same compound, the TBIL [3] was 0.042 mg/dL, the TC [3] was 87 mg/dL and the TG [3] was 35.6 mg/dL. For the same compound, the TP [3] was 5.1 g/dL, the gamma-GTP [3] was 1 IU/L and the TERMINAL_BW [4] was 207.9 g. For the same compound, the APTT [4] was 16.4 s, the Bas [4] was 0% and the Eos [4] was 1%. For the same compound, the Fbg [4] was 230.4 mg/dL, the Hb [4] was 13 g/dL and the Ht [4] was 38.7%. For the same compound, the Lym [4] was 77%, the MCHC [4] was 33.5% and the Mono [4] was 3.8%. It also gave a Neu [4] of 17.8%, a PT [4] of 12.5 s and a Plat [4] of 115 x10_4/uL. It also gave an RBC [4] of 595.2 x10_4/ul, a Ret [4] of 8.9% and a WBC [4] of 101.4 x10_2/uL. For the same compound, the KIDNEY_L [4] was 0.9 g, the KIDNEY_R [4] was 0.9 g and the KIDNEY_TOTAL [4] was 1.8 g. It also gave an LIVER [4] of 10 g, an ALP [4] of 1728.6 IU/L and an ALT [4] of 49.8 IU/L. It also gave an AST [4] of 78.2 IU/L, a BUN [4] of 16 mg/dL and a CRE [4] of 0.2 mg/dL. It also gave a Ca [4] of 11.4 mg/dL, a Cl [4] of 103.8 meq/L and a DBIL [4] of 0.012 mg/dL. For the same compound, the GLC [4] was 173 mg/dL, the IP [4] was 8.6 mg/dL and the K [4] was 3.9 meq/L. It also gave an LDH [4] of 63.6 IU/L, a Na [4] of 141.2 meq/L and a PL [4] of 139 mg/dL. The RALB [4] was 2.6 g/dL, the TBIL [4] was 0.038 mg/dL and the TG [4] was 89.6 mg/dL. The TP [4] was 5.5 g/dL, the gamma-GTP [4] was 1 IU/L and the TERMINAL_BW (100 mg/kg, 3 h, dose level Low) was 201 g.

Reference: ChEMBL document CHEMBL3885861, “Open TG-GATES”
